Holding throughout (type): physicochemical
Series [1] is described as follows: Carbon nanotube solubilizing capability of saccharide aqueous solutions (absorbance of supernatant at 500 nm). The conditions noted are these: for A500: about 4 mg SWCNT-1 per 1 mL, ultra sound 5 min; for amount of the solubilized carbon nanotube (in words): at the investigated concentrations of Table 1. The method, then:
(§1) The amount of the carbon nanotube dissolved in the solution can be measured, for example, by recovering the carbon nanotube by centrifugation at 70,000×g for 15 minutes and measuring the weight thereof. Alternatively, as described in the literature “Chem. Commun.”, P. 193 (2001), the concentration of the carbon nanotube has quite a high correlation with the absorbance at 500 nm, and the water-soluble xylan has almost no absorption at the wavelength. Thus, the concentration of the carbon nanotube is easily determined by measuring the absorbance of the solution at 500 nm, unless the solution contains any other substances having absorption at around 500 nm. In the case where a hardly soluble or insoluble substance is used as another substance, the method for measuring the concentration of the substance in the solution can be appropriately selected in depending on the substance.
A solubilizing capability of the water-soluble xylan was compared with those of other saccharides. As the water-soluble xylan, glucuronoxylan (manufactured by Institute of Chemistry, Slovak Academy of Sciences; the number average molecular weight: 18,000; xylose residue: 4-O-methyl-D-glucuronic acid reside=10:1; no acetylation) was used. For comparison, various saccharide solutions of amylose (the number average molecular weight of 2,900), pectin (derived from citrus fruit), polygalacturonic acid, methylcellulose, fucoidan, xanthan gum, carboxymethyl cellulose, an Abelmoschus manihot extraction liquid, a Hydrangea paniculata extraction liquid, gum arabic, β-1,3-glucan (schizophyllan, curdlan), and xylo-oligosaccarides (polymerization degrees of 2 and 5) were used.
To 1 mL of each of the saccharide aqueous solutions, about 4 mg of the single layer carbon nanotube powder (SWCNT-1 manufactured by Shenzhen Nanotech Port Co., Ltd.) was added and then stirred for about 10 seconds with a Vortex mixer. The mixture was applied ultra sound with a bath type sonicator (UT-205 manufactured by Sharp Corporation) at a room temperature (15° C. to 20° C.) for 5 minutes to dissolve the carbon nanotube. The obtained solution was centrifuged at 2,200×g for 10 minutes, and then the supernatant thereof was collected. The amount of the dissolved carbon nanotube was estimated by measuring the absorbance of the supernatant at 500 nm. The saccharides vary from one another in solubility to water.
Within the same concentration range, the absorbances at 500 nm of the solutions containing another saccharide were 3 or less.

The nature of series [2]: Preparation of carbon nanotube solution with water-soluble xylan: absorbance at 500 nm and dissolved carbon nanotube. The method, then: as §1
As water-soluble xylan, glucuronoxylan (manufactured by Institute of Chemistry, Slovak Academy of Sciences; the number average molecular weight: 18,000; xylose residue: 4-O-methyl-D-glucuronic acid reside=10:1; no acetylation; derived from beech) was used. To 1 L of a 0.4 mg/mL glucuronoxylan aqueous solution, 2 g of a single-layer carbon nanotube powder (SWCNT-1 manufactured by Shenzhen Nanotech Port Co., Ltd.) was added, and then stirred with a magnetic stirrer. The mixture was sequentially applied ultra sound by an ultra sound dispersing machine (Model UH-600SR, HO-F36 flanged chip, RD-36 continuous holder; manufactured by SMT Co., Ltd.) at a room temperature (15° C. to 20° C.) for 130 minutes at a flow rate of 1 L/min to dissolve and disperse the carbon nanotube. The obtained solution was centrifuged at 2,200×g for 15 minutes, and then collected the supernatant. The supernatant was a blackish solution.
The obtained solution was centrifuged at 70,000×g for 10 minutes to collect the carbon nanotube as a precipitate. To the obtained precipitate, 50 mL of the aforementioned glucuronoxylan aqueous solution was added, and the carbon nanotube was dispersed by applying an ultra sound at a room temperature (15° C. to 20° C.) for 5 minutes with a bath type sonicator (Branson 1200).
To 10 L of the water-soluble xylan solution prepared by Preparative Example 1, 5 g of a single-layer carbon nanotube powder (SWCNT-1 manufactured by Shenzhen Nanotech Port Co., Ltd.) was added and then stirred. The mixture was sequentially applied ultra sound by an ultra sound dispersing machine (Model UH-600SR, HO-F36 flanged chip, RD-36 continuous holder; manufactured by SMT Co., Ltd.) at a room temperature (15° C. to 20° C.) for 90 minutes at a flow rate of 1 L/min to dissolve and disperse the carbon nanotube. The obtained solution was centrifuged at 2,200×g for 15 minutes, and then the supernatant was collected. […]

Series [3] can be described thus: Carbon nanotube solubilizing capability of saccharide aqueous solutions (absorbance of supernatant at 500 nm). The conditions noted are these: Example 2-2, FIG. 4; concentration dependency.
Where [4] appears, read: saccharide 1.00 mg/mL, supernatant.
The mark [5] stands for this setting: saccharide 2.00 mg/mL, supernatant.
[6] abbreviates: saccharide 2.50 mg/mL, supernatant.
The mark [7] stands for this setting: saccharide 10.00 mg/mL, supernatant.
Where [8] appears, read: saccharide 5 mg/mL (5.00), supernatant.
The mark [9] stands for this setting: saccharide 0.40 mg/mL, supernatant after 2,200xg 10 min.
The mark [10] stands for this setting: Example 1-1: 0.4 mg/mL glucuronoxylan, 2 g SWCNT-1 per 1 L, ultra sound 130 min, supernatant after 2,200xg 15 min.
The mark [11] stands for this setting: Example 1-1: 70,000xg precipitate re-dispersed in 50 mL glucuronoxylan solution, ultra sound 5 min.

In the case of methylcellulose, the A500 in series [1] (setting [4]) stood at 0.16; in series [1] (setting [5]), 0.80.
Regarding pectin, in series [1], the “amount of the solubilized carbon nanotube (in words)” value (from here on “amount”) is reported as “close to that when using the water-soluble xylan”. The A500 in series [1] (setting [6]) turned out to be 3.48; in series [1] (setting [7]), 6.28.
Turning to amylose, the A500 came out at 0.02 in series [1] (setting [8]) and 0.06 in series [1] (setting [7]).
Take gum arabic: the “amount” value in series [1] is “close to that when using the water-soluble xylan”. Also, the A500 worked out at 0.73 in series [1] (setting [4]) and 4.30 in series [1] (setting [7]).
Turning to schizophyllan, the A500 stood at 0.12 in series [1] (saccharide 0.20 mg/mL, supernatant) and 0.95 in series [1] (setting [9]).
Regarding xanthan gum, the “amount” value in series [1] is recorded as “close to that when using the water-soluble xylan”. The A500 in series [1] (setting [4]) worked out at 2.79; in series [1] (setting [5]), 6.91.
With `OC1OC[C@@H](O[C@@H]2OC[C@@H](O[C@@H]3OC[C@@H](O[C@@H]4OC[C@@H](O[C@@H]5OC[C@@H](O)[C@H](O)[C@H]5O)[C@H](O)[C@H]4O)[C@H](O)[C@H]3O)[C@H](O)[C@H]2O)[C@H](O)[C@H]1O` (stereo partly drawn), the “amount” value in series [1] was “did not exhibit solubilization of carbon nanotube at all”. The same compound yielded an A500 in series [1] (setting [8]) of 0.00.
curdlan had an A500 in series [1] (setting [9]) of 0.02.
Take `OC1OC[C@@H](O[C@@H]2OC[C@@H](O)[C@H](O)[C@H]2O)[C@H](O)[C@H]1O` (stereo partly drawn): the “amount” value in series [1] is recorded as “did not exhibit solubilization of carbon nanotube at all”. This compound also showed an A500 in series [1] (saccharide 16 mg/mL, supernatant) of 0.00.
With fucoidan, the “amount” value in series [1] is “close to that when using the water-soluble xylan”. Also, the A500 in series [1] (setting [6]) turned out to be 1.33; in series [1] (setting [7]) it was 6.80.
Turning to polygalacturonic acid, the “amount” value in series [1] is recorded as “close to that when using the water-soluble xylan”. For the same compound, the A500 is on record as 2.18 in series [1] (saccharide 1.90 mg/mL, supernatant) and 5.26 in series [1] (saccharide 2.70 mg/mL, supernatant).
For glucuronoxylan [Water-soluble Xylan], in series [2] (setting [10]), the “absorbance at 500 nm” value was 7.57 and the “carbon nanotube contained in solution” value was “about 282 μg/mL”. In series [2] (setting [11]), the “absorbance at 500 nm” value stood at 122 and the “carbon nanotube contained in solution” value is listed as “about 4.5 mg/mL”. Moreover, in series [3], the “saccharide concentration showing the maximum absorbance at 500 nm” value is listed as 0.2 mg/mL. For the same compound, in series [1], the “amount” value is listed as “largest”. Also, the A500 in series [1] (setting [9]) is on record as 10.70.
As for “carboxymethyl cellulose [Carboxy Methylcellulose]”, the “amount” value in series [1] was “close to that when using the water-soluble xylan”. In addition, the A500 in series [1] (setting [6]) is 5.64; in series [1] (setting [7]), 2.37.

Values taken from patent US9315678B2, “Affinity of hardly soluble or insoluble substance solvent by water-soluble xylan” (Ezaki Glico Co., Ltd., priority 2006, dated 2016).
